The source of these data is patent publication US20230167088A1, “1-PYRAZINYLPYRAZOLYL-3-OXYALKYL ACIDS AND THEIR DERIVATIVES, AND THEIR USE FOR CONTROL OF UNDESIRED PLANT GROWTH” (BAYER AKTIENGESELLSCHAFT, priority 2020, published 2023).

The structures appear in SMILES notation.

Experiment [1] concerns MATIN. As to the kind of experiment: Herbicidal pre-emergence action 2a (greenhouse pots, visual scoring). The format is in vivo, Matricaria inodora. As to conditions: dosage 320 g/ha, visual scoring after about 3 weeks vs untreated controls. Put shortly: (§1)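 Percent effect (0% like control, 100% plants died) was scored by eye roughly 3 weeks post-application. Formulated compound went onto the soil covering freshly sown seeds in water at 600 l/ha with 0.5% additive; dose 320 g/ha and/or 80 g/ha.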

The test system of experiment [2] is VERPE. As to the kind of experiment: Herbicidal post-emergence action 1a (greenhouse pots, visual rating). The format is in vivo, Veronica persica. Conditions: visual rating about 3 weeks after treatment. An outline of the steps: (§2)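 Weeds and crops sown in sandy loam in greenhouse pots were sprayed post-emergence at the one-leaf stage (2–3 weeks after sowing) with WP or EC formulations plus 0.5% additive at 600 l/ha water, 320 and/or 80 g/ha. About 3 weeks later damage was rated visually against untreated controls (0% = no effect, 100% = dead).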

Experiment [3] concerns harmful plants. Put plainly: Herbicidal pre-emergence action 2a, summary across species. Conditions: Tables B1 to B15 (320 g/ha and/or 80 g/ha). The format is in vivo. Put shortly: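 Pre-emergence greenhouse test: WP or EC formulations sprayed onto soil covering sown weed and crop seeds, 600 l/ha water with 0.5% additive, at 320 g/ha and/or 80 g/ha. Damage scored visually after about 3 weeks as % versus untreated control (100% = plants dead).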

In experiment [4] the test system is ABUTH. As to the kind of experiment: Herbicidal post-emergence action 1a (greenhouse pots, visual rating). The format is in vivo, Abutilon theophrasti. As to conditions: visual rating about 3 weeks after treatment. An outline of the steps:
as §2

Experiment [5] concerns DIGSA. Put plainly: Herbicidal pre-emergence action 2a (greenhouse pots, visual scoring). Conditions: dosage 320 g/ha, visual scoring after about 3 weeks. The format is in vivo, Digitaria sanguinalis. Put shortly:
as §1

Experiment [6] relates to PHBPU. The experiment is described as above. In kind it is in vivo, Pharbitis purpurea. As to conditions: dosage 320 g/ha, visual scoring after about 3 weeks vs untreated controls. Put shortly: as §1
The subject of experiment [7] is ECHCG. As to the kind of experiment: Herbicidal post-emergence action 1a (greenhouse pots, visual rating). The format is in vivo, Echinochloa crus-galli. Conditions: rated visually about 3 weeks after treatment, 100% = plants have died, 0% = like control plants. Put shortly: as §2
In experiment [8] the test system is VERPE. Put plainly: Herbicidal pre-emergence action 2a (greenhouse pots, visual scoring). The format is in vivo, Veronica persica. Conditions: dosage 320 g/ha, visual scoring after about 3 weeks vs untreated controls. An outline of the steps: as §1
For experiment [9], the system named is ECHCG. The description is as above. In kind it is in vivo, Echinochloa crus-galli. Conditions: dosage 320 g/ha, visual scoring after about 3 weeks. An outline of the steps: as §1
In experiment [10] the test system is ECHCG. Put plainly: Herbicidal pre-emergence action 2b (doubly sown, 1280 g/ha). The format is in vivo, Echinochloa crus-galli. As to conditions: doubly sown pots, dosage 1280 g/ha, visual scoring after about 3 weeks. An outline of the steps: (§3)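 Weed seeds sown in sandy loam, two species per pot, covered with soil; compounds as WP or EC applied to soil surface as aqueous suspension/emulsion with 0.5% additive at 600 L/ha water. Greenhouse growth; visual % activity vs untreated controls after about 3 weeks (100% = dead, 0% = like control).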

In experiment [11] the test system is POAAN. The description is as above. The format is in vivo, Poa annua. Conditions: doubly sown pots, dosage 1280 g/ha, visual scoring after about 3 weeks. Put shortly: as §3
For experiment [12], the system named is POLCO. Put plainly: Herbicidal post-emergence action 1a (greenhouse pots, visual rating). Conditions: visual rating about 3 weeks after treatment. In kind it is in vivo, Polygonum convolvulus. An outline of the steps:
as §2

Experiment [13] relates to STEME. Put plainly: Herbicidal pre-emergence action 2b (doubly sown, 1280 g/ha). The format is in vivo, Stellaria media. As to conditions: doubly sown pots, dosage 1280 g/ha, visual scoring after about 3 weeks. An outline of the steps: as §3
Experiment [14] concerns MATIN. Described as above. The format is in vivo, Matricaria inodora. As to conditions: doubly sown pots, dosage 1280 g/ha, visual scoring after about 3 weeks. An outline of the steps: as §3

`COC(=O)COc1nn(-c2cnccn2)c(-c2ccc(F)c(F)c2)c1Br` [Example I-15]: the “Pre-emergence action against MATIN in %” value in experiment [1] was 100%. Moreover, the “Post-emergence action against VERPE in %” value in [2] (dosage 80 g/ha) and in experiment [2] (dosage 320 g/ha) was 90% throughout. For the same compound, the “herbicidal efficacy against harmful plants in the case of pre-emergence treatment (in words)” value (“herbicidal efficacy” for short) in experiment [3] is “good herbicidal efficacy”. For the same compound, the “Post-emergence action against ABUTH in %” value in [4] (dosage 80 g/ha) and in experiment [4] (dosage 320 g/ha) was 80% in each case. Moreover, the “Pre-emergence action against DIGSA in %” value in experiment [5] worked out at 100%. In addition, in [6], the “Pre-emergence action against PHBPU in %” value was determined as 90%. Also, the “Post-emergence action against ECHCG in %” value in experiment [7] (Dosage 320 g/ha) turned out to be 90%. The “Pre-emergence action against VERPE in %” value in [8] was 100%. The “Pre-emergence action against ECHCG in %” value in [9] amounted to 100%.
As for `C[C@@H](Oc1nn(-c2cnccn2)c(-c2cccc(F)c2)c1Br)C(=O)O` [Example I-48], in [10], the “Pre-emergence action at 1280 g/ha against ECHCG in %” value is given as 100%. Moreover, the “Pre-emergence action against MATIN in %” value in [1] is recorded as 100%. Further, the “herbicidal efficacy” value in experiment [3] is “good herbicidal efficacy”. The “Pre-emergence action at 1280 g/ha against POAAN in %” value in experiment [11] is 100%. The “Post-emergence action against POLCO in %” value in experiment [12] (dosage 320 g/ha) was determined as 100%. The “Pre-emergence action against DIGSA in %” value in experiment [5] was found to be 100%. Moreover, in experiment [6], the “Pre-emergence action against PHBPU in %” value was found to be 90%. In addition, the “Pre-emergence action at 1280 g/ha against STEME in %” value in experiment [13] is 100%. The “Post-emergence action against ECHCG in %” value in [7] (Dosage 80 g/ha) was 90%. In addition, in experiment [8], the “Pre-emergence action against VERPE in %” value turned out to be 100%. The “Pre-emergence action against ECHCG in %” value in experiment [9] is 100%. In addition, in [14], the “Pre-emergence action at 1280 g/ha against MATIN in %” value amounted to 100%.
For `COC(=O)C(C)Oc1nn(-c2cnccn2)c(-c2cncc(F)c2)c1Br` (racemic) [Example I-08], the “Pre-emergence action against MATIN in %” value in experiment [1] came to 90%. The “Post-emergence action against VERPE in %” value in experiment [2] (dosage 80 g/ha) and in experiment [2] (dosage 320 g/ha) was 90% in each case. Also, the “herbicidal efficacy” value in [3] is recorded as “good herbicidal efficacy”. Further, the “Post-emergence action against ABUTH in %” value in experiment [4] (dosage 80 g/ha) is given as 80%; in experiment [4] (dosage 320 g/ha), 90%. Besides, the “Post-emergence action against POLCO in %” value in [12] (dosage 320 g/ha) was 100%. Also, the “Pre-emergence action against DIGSA in %” value in experiment [5] is on record as 100%. In addition, in experiment [6], the “Pre-emergence action against PHBPU in %” value amounted to 90%. The figures for the “Post-emergence action against ECHCG in %” value in experiment [7] (Dosage 80 g/ha) and in experiment [7] (Dosage 320 g/ha) were 80% and 90%, respectively. Further, the “Pre-emergence action against VERPE in %” value in experiment [8] came to 100%. The “Pre-emergence action against ECHCG in %” value in [9] came out at 100%.
Consider `COC(=O)COc1nn(-c2cnccn2)c(-c2cncc(F)c2)c1Br` [Example I-07], for which, in [1], the “Pre-emergence action against MATIN in %” value is 90%. Further, the “Post-emergence action against VERPE in %” value in experiment [2] (dosage 80 g/ha) and in experiment [2] (dosage 320 g/ha) was 90% each time. The “herbicidal efficacy” value in experiment [3] is “good herbicidal efficacy”. Further, the “Post-emergence action against ABUTH in %” value turned out to be 80% in experiment [4] (dosage 80 g/ha) and 90% in [4] (dosage 320 g/ha). Besides, the “Post-emergence action against POLCO in %” value worked out at 80% in experiment [12] (dosage 80 g/ha) and 90% in experiment [12] (dosage 320 g/ha). Also, in [5], the “Pre-emergence action against DIGSA in %” value was 100%. For the same compound, the “Pre-emergence action against PHBPU in %” value in experiment [6] is 90%. The “Post-emergence action against ECHCG in %” value was 80% in experiment [7] (Dosage 80 g/ha) and 90% in experiment [7] (Dosage 320 g/ha). Also, in [8], the “Pre-emergence action against VERPE in %” value is 100%. The “Pre-emergence action against ECHCG in %” value in experiment [9] worked out at 100%.
